The results in this text go back to patent US12655130B2 (ASSEMBLY BIOSCIENCES, INC., priority 2020, dated 2026).

The subject of one assay is HBV viral load (viral production from HepAD38 cells). Briefly: Activity of test compounds on viral production from HepAD38 cells (viral load by qPCR of HBV core sequence). The conditions noted are these: Hepatitis B virus, HePAD38, 120 h, viral load lowering, 5 days, qPCR of supernatant, read-out: VL HepAD38 EC50 range. The class given is cell-based. Put shortly: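 EC50 and CC50 come from four-parameter logistic fits: HBV core DNA in supernatant by TaqMan qPCR against DNA standards, normalised to DMSO controls, and cell viability by CellTiter-Glo. Cells were plated at 50,000/well without tetracycline (2% FBS) and exposed to compounds (highest 10 μM) for 5 days, 37 °C.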
Turning to `Cc1nc(C2CC3CC(O)(CS(C)(=O)=O)CC3C2)c(C(=O)Nc2ccc(F)c(Cl)c2)n1C` (stereo not drawn) [Example 25, N-(3-Chloro-4-fluorophenyl)-4-(5-hydroxy-5-((methylsulfonyl)methyl)octahydropentalen-2-yl)-1,2-dimethyl-1H-imidazole-5-carboxamide], the EC50 is below 0.01 µM.

`Cc1nc(C2CC3CC(O)CC3C2)c(C(=O)Nc2ccc(F)c(Cl)c2)n1C` (stereo not drawn) [Example 24, N-(3-Chloro-4-fluorophenyl)-4-(5-hydroxyoctahydropentalen-2-yl)-1,2-dimethyl-1H-imidazole-5-carboxamide]: the 50% effective concentration (EC50) was below 0.01 µM.

Consider `Cc1cc(NC(=O)c2c(C3CC4CC(O)(c5cn(C)nc5C(F)(F)F)CC4C3)ncn2C)ccc1F` (stereo not drawn) [Example 171, N-(4-Fluoro-3-methylphenyl)-4-(5-hydroxy-5-(1-methyl-3-(trifluoromethyl)-1H-pyrazol-4-yl)octahydropentalen-2-yl)-1-methyl-1H-imidazole-5-carboxamide], for which the concentration giving a half-maximal response (EC50) is below 0.01 µM.

Consider `CC(C)Oc1cc(C2(O)CC3CC(c4ncn(C)c4C(=O)Nc4ccc(F)c(Cl)c4)CC3C2)n(C)n1` (stereo not drawn) [Example 54, N-(3-Chloro-4-fluorophenyl)-4-(5-hydroxy-5-(3-isopropoxy-1-methyl-1H-pyrazol-5-yl)octahydropentalen-2-yl)-1-methyl-1H-imidazole-5-carboxamide], for which the concentration for a half-maximal effect (EC50) is below 0.01 µM.

Turning to `Cn1cnc(C2CC3CC(O)(c4c(F)c(NCC(C)(C)O)nn4C)CC3C2)c1C(=O)Nc1ccc(F)c(Cl)c1` (stereo not drawn) [Example 63, N-(3-Chloro-4-fluorophenyl)-4-(5-(4-fluoro-3-((2-hydroxy-2-methylpropyl)amino)-1-methyl-1H-pyrazol-5-yl)-5-hydroxyoctahydropentalen-2-yl)-1-methyl-1H-imidazole-5-carboxamide], the EC50 was below 0.01 µM.

Turning to `Cn1cc(C2(O)CC3CC(c4ncn(C)c4C(=O)Nc4ccc(F)c(C#N)c4)CC3C2)c(C(F)(F)F)n1` (stereo not drawn) [Example 115, N-(3-Cyano-4-fluorophenyl)-4-(5-hydroxy-5-(1-methyl-3-(trifluoromethyl)-1H-pyrazol-4-yl)octahydropentalen-2-yl)-1-methyl-1H-imidazole-5-carboxamide], the half-maximal effective concentration (EC50) was below 0.01 µM.

Consider `Cn1cnc(C2CC3CC(O)(c4cc(NCC(F)(F)F)nn4C)CC3C2)c1C(=O)Nc1ccc(F)c(Cl)c1` (stereo not drawn) [Example 197, N-(3-Chloro-4-fluorophenyl)-4-(5-hydroxy-5-(1-methyl-3-((2,2,2-trifluoroethyl)amino)-1H-pyrazol-5-yl)octahydropentalen-2-yl)-1-methyl-1H-imidazole-5-carboxamide], for which the EC50 is below 0.01 µM.

`Cn1cnc(C2CC3CC(O)(c4cc([N+](=O)[O-])nn4C)CC3C2)c1C(=O)Nc1ccc(F)c(Cl)c1` (single isomer, unassigned) [Example 50, N-(3-Chloro-4-fluorophenyl)-4-(5-hydroxy-5-(1-methyl-3-nitro-1H-pyrazol-5-yl)octahydropentalen-2-yl)-1-methyl-1H-imidazole-5-carboxamide]: the half-maximal effective concentration (EC50) is below 0.01 µM.

For `Cn1cnc(C2CC3CC(O)(c4c(F)c(O)nn4C)CC3C2)c1C(=O)Nc1ccc(F)c(Cl)c1` (stereo not drawn) [Example 61, N-(3-Chloro-4-fluorophenyl)-4-(5-(4-fluoro-3-hydroxy-1-methyl-1H-pyrazol-5-yl)-5-hydroxyoctahydropentalen-2-yl)-1-methyl-1H-imidazole-5-carboxamide], the EC50 is below 0.01 µM.

As to `CC#Cc1cc(C2(O)CC3CC(c4ncn(C)c4C(=O)Nc4ccc(F)c(Cl)c4)CC3C2)n(C)n1` (stereo not drawn) [Example 56, N-(3-Chloro-4-fluorophenyl)-4-(5-hydroxy-5-(1-methyl-3-(prop-1-yn-1-yl)-1H-pyrazol-5-yl)octahydropentalen-2-yl)-1-methyl-1H-imidazole-5-carboxamide], the half-maximal effective concentration (EC50) is below 0.01 µM.

As to `CCn1nc(C(F)F)cc1C1(O)CC2CC(c3ncn(C)c3C(=O)Nc3ccc(F)c(Cl)c3)CC2C1` (stereo not drawn) [Example 152, N-(3-Chloro-4-fluorophenyl)-4-(5-(3-(difluoromethyl)-1-ethyl-1H-pyrazol-5-yl)-5-hydroxyoctahydropentalen-2-yl)-1-methyl-1H-imidazole-5-carboxamide], the 50% effective concentration (EC50) was below 0.01 µM.

Turning to `Cc1nc(C2CC3CC(O)(C(F)(F)F)CC3C2)c(C(=O)Nc2ccc(F)c(Cl)c2)n1C` (stereo not drawn) [Example 26, N-(3-Chloro-4-fluorophenyl)-4-(5-hydroxy-5-(trifluoromethyl)octahydropentalen-2-yl)-1,2-dimethyl-1H-imidazole-5-carboxamide], the EC50 is 0.01 to 0.05 µM.

For `CC(CO)COc1cc(C2(O)CC3CC(c4ncn(C)c4C(=O)Nc4ccc(F)c(Cl)c4)CC3C2)n(C)n1` (stereo not drawn) [Example 211, N-(3-Chloro-4-fluorophenyl)-4-(5-hydroxy-5-(3-(3-hydroxy-2-methylpropoxy)-1-methyl-1H-pyrazol-5-yl)octahydropentalen-2-yl)-1-methyl-1H-imidazole-5-carboxamide], the EC50 is below 0.01 µM.

In the case of `CC(N)c1nn(C)cc1C1(O)CC2CC(c3ncn(C)c3C(=O)Nc3ccc(F)c(Cl)c3)CC2C1` (stereo not drawn) [Example 184, 4-(5-(3-(1-Aminoethyl)-1-methyl-1H-pyrazol-4-yl)-5-hydroxyoctahydropentalen-2-yl)-N-(3-chloro-4-fluorophenyl)-1-methyl-1H-imidazole-5-carboxamide], the concentration for a half-maximal effect (EC50) was below 0.01 µM.

On to `O=C(Nc1ccc(F)c(Cl)c1)c1sc(C(F)(F)F)nc1C1CC2CC(O)CC2C1` (stereo not drawn) [Example 37, N-(3-chloro-4-fluorophenyl)-4-(5-hydroxyoctahydropentalen-2-yl)-2-(trifluoromethyl)thiazole-5-carboxamide], for which the concentration for a half-maximal effect (EC50) lay in the range of 0.05 to 0.5 µM.

As to `CC(C)n1nccc1C1(O)CC2CC(c3ncn(C)c3C(=O)Nc3ccc(F)c(Cl)c3)CC2C1` (stereo not drawn) [Example 120, N-(3-chloro-4-fluorophenyl)-4-(5-hydroxy-5-(1-isopropyl-1H-pyrazol-5-yl)octahydropentalen-2-yl)-1-methyl-1H-imidazole-5-carboxamide], the half-maximal effective concentration (EC50) was below 0.01 µM.

As for `Cn1cnc(C2CC3CC(O)(c4cccc(F)c4)CC3C2)c1C(=O)Nc1ccc(F)c(Cl)c1` (stereo not drawn) [Example 6, N-(3-Chloro-4-fluorophenyl)-4-(5-(3-fluorophenyl)-5-hydroxyoctahydropentalen-2-yl)-1-methyl-1H-imidazole-5-carboxamide], the EC50 is below 0.01 µM.

With `Cn1cc(C(F)(F)F)c(C2(O)CC3CC(c4ncn(C)c4C(=O)Nc4ccc(F)c(Cl)c4)CC3C2)n1` (stereo not drawn) [Example 156, N-(3-Chloro-4-fluorophenyl)-4-(5-hydroxy-5-(1-methyl-4-(trifluoromethyl)-1H-pyrazol-3-yl)octahydropentalen-2-yl)-1-methyl-1H-imidazole-5-carboxamide], the concentration for a half-maximal effect (EC50) was below 0.01 µM.

For the compound `Cn1c(N)nc(C2CC3CC(O)CC3C2)c1C(=O)Nc1ccc(F)c(Cl)c1` (stereo not drawn) [Example 28, 2-Amino-N-(3-chloro-4-fluorophenyl)-4-(5-hydroxyoctahydropentalen-2-yl)-1-methyl-1H-imidazole-5-carboxamide], the EC50 was below 0.01 µM.

For `CC(N)C(=O)Nc1cc(C2(O)CC3CC(c4ncn(C)c4C(=O)Nc4ccc(F)c(Cl)c4)CC3C2)n(C)n1` (stereo not drawn) [Example 219, 4-(5-(3-(2-Aminopropanamido)-1-methyl-1H-pyrazol-5-yl)-5-hydroxyoctahydropentalen-2-yl)-N-(3-chloro-4-fluorophenyl)-1-methyl-1H-imidazole-5-carboxamide], the EC50 was below 0.01 µM.

Take `Cn1cnc(C2CC3CC(O)(CS(=O)(=O)c4ccc(F)cc4)CC3C2)c1C(=O)Nc1ccc(F)c(Cl)c1` (stereo not drawn) [Example 11, N-(3-Chloro-4-fluorophenyl)-4-(5-(((4-fluorophenyl)sulfonyl)methyl)-5-hydroxyoctahydropentalen-2-yl)-1-methyl-1H-imidazole-5-carboxamide]: the half-maximal effective concentration (EC50) was 0.01 to 0.05 µM.

As for `CC(C)Cc1cc(C2(O)CC3CC(c4ncn(C)c4C(=O)Nc4ccc(F)c(Cl)c4)CC3C2)n(C)n1` (stereo not drawn) [Example 196, N-(3-Chloro-4-fluorophenyl)-4-(5-hydroxy-5-(3-isobutyl-1-methyl-1H-pyrazol-5-yl)octahydropentalen-2-yl)-1-methyl-1H-imidazole-5-carboxamide], the concentration for a half-maximal effect (EC50) is below 0.01 µM.

In the case of `Cn1ccnc1C1(O)CC2CC(c3ncn(C)c3C(=O)Nc3ccc(F)c(Cl)c3)CC2C1` (single isomer, unassigned) [Example 5, N-(3-Chloro-4-fluorophenyl)-4-(5-hydroxy-5-(1-methyl-1H-imidazol-2-yl)octahydropentalen-2-yl)-1-methyl-1H-imidazole-5-carboxamide], the concentration giving a half-maximal response (EC50) was below 0.01 µM.

Consider `CCCCC1(O)CC2CC(c3nc(Cl)n(C)c3C(=O)Nc3ccc(F)c(Cl)c3)CC2C1` (stereo not drawn) [Example 113, 4-(5-Butyl-5-hydroxyoctahydropentalen-2-yl)-2-chloro-N-(3-chloro-4-fluorophenyl)-1-methyl-1H-imidazole-5-carboxamide], for which the EC50 is below 0.01 µM.

Turning to `CC(C)n1nc(NCC(C)(C)O)c(F)c1C1(O)CC2CC(c3ncn(C)c3C(=O)Nc3ccc(F)c(Cl)c3)CC2C1` (stereo not drawn) [Example 216, N-(3-Chloro-4-fluorophenyl)-4-(5-(4-fluoro-3-((2-hydroxy-2-methylpropyl)amino)-1-isopropyl-1H-pyrazol-5-yl)-5-hydroxyoctahydropentalen-2-yl)-1-methyl-1H-imidazole-5-carboxamide], the concentration for a half-maximal effect (EC50) was below 0.01 µM.

As to `CC(C)(C)OC(=O)N1CCn2c(nc(C3CC4CC(=O)CC4C3)c2C(=O)Nc2ccc(F)c(Cl)c2)C1` (stereo not drawn) [Example 90, tert-butyl 3-((3-chloro-4-fluorophenyl)carbamoyl)-2-(5-oxooctahydro-pentalen-2-yl)-5,6-dihydroimidazo[1,2-a]pyrazine-7(8H)-carboxylate], the EC50 fell in the range of 0.05 to 0.5 µM.

Still in this assay, the particulars now being: viral load lowering, 5 days, qPCR of supernatant, read-out: VL HepAD38 EC50 range.
Take `O=C1CC2CC(c3nc4n(c3C(=O)Nc3ccc(F)c(Cl)c3)CCCC4)CC2C1` (stereo not drawn) [Example 81, N-(3-Chloro-4-fluorophenyl)-2-(5-oxooctahydropentalen-2-yl)-5,6,7,8-tetrahydroimidazo[1,2-a]pyridine-3-carboxamide]: the EC50 lay within 0.01 to 0.05 µM.
